Experimental data reported in ChEMBL document CHEMBL1772985, “N-(3-fluoro-4-(4-(2-methoxy or 2,3-dichlorophenyl)piperazine-1-yl)butyl)arylcarboxamides as selective dopamine D3 receptor ligands: critical role of the carboxamide linker for D3 receptor selectivity” (J Med Chem, 2011).
pEC50, pIC50, pKd, pKi: −log10 of the molar value.

Legend:
[1] = target: 5-hydroxytryptamine receptor 2A (Homo sapiens, UniProt P28223)
D(3) dopamine receptor [2] = target: T1, D(3) dopamine receptor (Homo sapiens, UniProt P35462); assay: Antagonist activity at human dopamine D3 receptor expressed in CHOp cells assessed as inhibition of quinpirole-induced mitogenesis; format: functional, cell-based
T1 sequence (P35462 whole entry): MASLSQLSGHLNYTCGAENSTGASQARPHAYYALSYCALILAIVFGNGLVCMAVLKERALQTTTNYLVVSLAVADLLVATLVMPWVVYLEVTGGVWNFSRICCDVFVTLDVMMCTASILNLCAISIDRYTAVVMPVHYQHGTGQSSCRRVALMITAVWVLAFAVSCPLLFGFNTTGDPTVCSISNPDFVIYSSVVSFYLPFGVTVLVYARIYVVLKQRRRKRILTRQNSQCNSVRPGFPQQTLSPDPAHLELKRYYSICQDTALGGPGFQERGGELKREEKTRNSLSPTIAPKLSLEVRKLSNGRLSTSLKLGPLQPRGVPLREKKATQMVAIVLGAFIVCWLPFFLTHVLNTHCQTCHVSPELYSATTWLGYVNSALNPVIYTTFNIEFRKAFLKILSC

D(2) dopamine receptor = D(2) dopamine receptor (Homo sapiens, UniProt P14416); assay: Displacement of [125I]-IABN from human dopamine D2L receptor expressed in HEK293 cells after 60 mins by gamma counting; format: cell-based
Chain of D(2) dopamine receptor (P14416 whole entry): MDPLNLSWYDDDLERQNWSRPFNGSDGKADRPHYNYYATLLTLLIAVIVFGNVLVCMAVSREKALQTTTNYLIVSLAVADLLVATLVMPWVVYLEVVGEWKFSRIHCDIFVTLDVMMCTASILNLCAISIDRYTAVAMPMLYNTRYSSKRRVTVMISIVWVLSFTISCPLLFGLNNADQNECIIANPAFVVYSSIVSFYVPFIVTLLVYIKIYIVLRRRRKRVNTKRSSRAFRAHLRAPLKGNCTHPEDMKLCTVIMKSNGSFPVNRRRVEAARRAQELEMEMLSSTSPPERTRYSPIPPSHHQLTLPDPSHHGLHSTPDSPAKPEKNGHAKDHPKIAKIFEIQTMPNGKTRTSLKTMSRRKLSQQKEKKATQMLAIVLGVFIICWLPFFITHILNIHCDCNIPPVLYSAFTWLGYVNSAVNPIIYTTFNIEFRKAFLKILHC

D(3) dopamine receptor [3] = target: T1, D(3) dopamine receptor; assay: Antagonist activity at human dopamine D3 receptor expressed in CHO-K1 cells assessed as inhibition of dopamine-induced recruitment of beta-arrestin-2 after 90 mins by beta-galactosidase assay; format: functional, cell-based
D(3) dopamine receptor [4] = target: T1, D(3) dopamine receptor; assay: Displacement of [125I]-IABN from human dopamine D3 receptor expressed in HEK293 cells after 60 mins by gamma counting; format: cell-based
Homo sapiens = species: Homo sapiens; assay: Selectivity ratio Ki for human dopamine D2L receptor to Ki for human dopamine D3 receptor
[5] = target: T2, 5-hydroxytryptamine receptor 1A (Homo sapiens, UniProt P08908); assay: Displacement of [3H]8-OH-DPAT from 5HT1A receptor
T2 sequence (P08908 whole entry): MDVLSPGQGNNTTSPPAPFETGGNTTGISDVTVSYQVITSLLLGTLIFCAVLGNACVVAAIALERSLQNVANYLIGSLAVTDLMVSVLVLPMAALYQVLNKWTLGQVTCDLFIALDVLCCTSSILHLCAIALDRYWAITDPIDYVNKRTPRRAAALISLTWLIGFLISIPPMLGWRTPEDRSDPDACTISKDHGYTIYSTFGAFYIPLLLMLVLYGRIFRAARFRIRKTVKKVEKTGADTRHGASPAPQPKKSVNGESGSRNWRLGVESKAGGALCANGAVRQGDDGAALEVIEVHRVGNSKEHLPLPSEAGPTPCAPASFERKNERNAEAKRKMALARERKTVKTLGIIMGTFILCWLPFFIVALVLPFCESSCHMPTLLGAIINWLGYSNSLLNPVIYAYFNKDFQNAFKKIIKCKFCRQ

[6] = target: T3, 5-hydroxytryptamine receptor 1A (Homo sapiens) (UniProt P08908); assay: Agonist activity at 5HT1A receptor assessed as stimulation of [35S]GTPgammaS binding relative to control; format: functional; parameters: concentration or dose not given beside the values
T3 sequence (whole entry): T2 sequence (P08908 whole entry)

[7] = target: T2, 5-hydroxytryptamine receptor 1A; assay: Agonist activity at 5HT1A receptor assessed as stimulation of [35S]GTPgammaS binding; format: functional
D(4) dopamine receptor = target: T4, D(4) dopamine receptor (Homo sapiens, UniProt P21917); assay: Displacement of [125I]-IABN from human dopamine D4 receptor expressed in HEK293 cells after 60 mins by gamma counting; format: cell-based
T4 sequence (P21917 whole entry): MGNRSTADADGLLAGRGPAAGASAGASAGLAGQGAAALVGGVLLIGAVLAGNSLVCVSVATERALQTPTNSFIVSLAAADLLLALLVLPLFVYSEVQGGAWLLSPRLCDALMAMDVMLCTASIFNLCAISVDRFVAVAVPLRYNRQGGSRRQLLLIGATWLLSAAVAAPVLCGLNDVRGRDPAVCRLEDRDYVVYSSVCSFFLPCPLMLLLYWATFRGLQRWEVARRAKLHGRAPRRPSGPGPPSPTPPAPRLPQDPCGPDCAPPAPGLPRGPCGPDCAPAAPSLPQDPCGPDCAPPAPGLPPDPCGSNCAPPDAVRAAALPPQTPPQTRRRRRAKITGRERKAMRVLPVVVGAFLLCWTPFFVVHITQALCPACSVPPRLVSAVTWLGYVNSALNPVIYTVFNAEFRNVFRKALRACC

[8] = target: T3, 5-hydroxytryptamine receptor 1A (Homo sapiens); assay: Displacement of [3H]8-OH-DPAT from 5HT1A receptor at 10 uM
D(3) dopamine receptor [9] = target: T1, D(3) dopamine receptor; assay: Antagonist activity at human dopamine D3 receptor expressed in CHO-K1 cells assessed as inhibition of dopamine-induced recruitment of beta-arrestin-2 at 10 uM after 90 mins by beta-galactosidase assay; format: functional, cell-based
[10] = Binding affinity to human dopamine D2/D3 receptor chimera C expressed in HEK293 cells; format: cell-based
[11] = Binding affinity to human dopamine D2/E2 loop of D3 receptor expressed in HEK293 cells; format: cell-based
[12] = Binding affinity to human dopamine D2/D3 receptor chimera B expressed in HEK293 cells; format: cell-based

Chain of 5-hydroxytryptamine receptor 2A (P28223 whole entry): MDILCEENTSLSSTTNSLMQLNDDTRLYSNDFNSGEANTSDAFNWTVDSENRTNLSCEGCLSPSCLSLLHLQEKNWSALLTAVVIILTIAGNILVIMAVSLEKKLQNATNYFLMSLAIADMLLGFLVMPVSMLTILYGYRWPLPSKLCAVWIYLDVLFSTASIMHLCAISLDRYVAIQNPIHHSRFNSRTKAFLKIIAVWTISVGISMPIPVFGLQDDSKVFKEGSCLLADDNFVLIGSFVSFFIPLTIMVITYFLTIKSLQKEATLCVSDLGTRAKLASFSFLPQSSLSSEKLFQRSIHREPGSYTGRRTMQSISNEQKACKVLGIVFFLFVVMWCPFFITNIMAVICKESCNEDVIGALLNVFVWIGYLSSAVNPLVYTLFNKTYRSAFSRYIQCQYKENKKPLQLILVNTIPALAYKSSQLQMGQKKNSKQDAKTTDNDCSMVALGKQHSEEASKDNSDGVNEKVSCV

pKi [1] | pIC50 (D(3) dopamine receptor [2]) | pKi (D(2) dopamine receptor) | pIC50 (D(3) dopamine receptor [3]) | pKi (D(3) dopamine receptor [4]) | Ratio Ki (Homo sapiens) | pKi [5] | Activity [6] | pEC50 [7] | pKi (D(4) dopamine receptor) | inhibition [8] | inhibition (D(3) dopamine receptor [9]) | SMILES | pKd [10] | pKd [11] | pKd [12]
5.48 | 7.77 | 6.33 | 5.42 | 8.54 | 163 | 5.67 | – | – | – | – | – | O=C(NCCC(F)CN1CCN(c2cccc(Cl)c2Cl)CC1)c1cc2ccccc2s1 (configuration not stated) | – | – | –
5.32 | 6.36 | 6.48 | – | 7.54 | 11 | 7.42 | 60% | 6.87 | – | – | – | COc1ccccc1N1CCN(CC(F)CCNC(=O)c2cc3ccccc3o2)CC1 (configuration not stated) | – | – | –
6.67 | – | 6.28 | 5.91 | 8.40 | 131 | 6.65 | 88% | 5.67 | 5.47 | – | – | O=C(NCCC(F)CN1CCN(c2cccc(Cl)c2Cl)CC1)c1cc2ccccc2[nH]1 (configuration not stated) | – | – | –
– | – | 6.71 | – | 7.15 | 3 | – | – | – | – | – | – | CCCN(CCCCN1CCN(c2ccccc2OC)CC1)Cc1ccc2c(c1)Cc1ccccc1-2 | – | – | –
– | – | 5.68 | – | 6.87 | 16 | – | – | – | – | – | – | OC(CCNCc1ccc2c(c1)Cc1ccccc1-2)CN1CCN(c2cccc(Cl)c2Cl)CC1 (configuration not stated) | – | – | –
6.57 | 6.49 | 6.64 | – | 8.82 | 153 | – | – | – | – | < 50% | < 50% | COc1ccc2[nH]c(C(=O)NCCC(F)CN3CCN(c4cccc(Cl)c4Cl)CC3)cc2c1 (configuration not stated) | – | – | –
– | – | – | – | – | – | – | – | – | – | – | – | O=C(NCCC(F)CN1CCN(c2cccc(Cl)c2Cl)CC1)c1cc2ccccc2o1 (configuration not stated) | 10.70 | 10.10 | 10.70
– | – | 6.50 | – | 6.98 | 3 | – | – | – | – | – | – | CCCN(CCCCN1CCN(c2cccc(Cl)c2Cl)CC1)Cc1ccc2ccccc2c1 | – | – | –
7.01 | 6.59 | 6.42 | – | 8.21 | – | 6.80 | – | 5.97 | 5.51 | – | – | O=C(NCCC(F)CN1CCN(c2cccc(Cl)c2Cl)CC1)c1ccc(-c2ccccn2)cc1 (configuration not stated) | – | – | –
– | – | 6.92 | – | 7.09 | 1.5 | – | – | – | – | – | – | CCCN(CCCCN1CCN(c2ccccc2OC)CC1)Cc1ccc2ccccc2c1 | – | – | –
5.32 | 6.10 | 5.37 | – | 8.59 | 1640 | 5.22 | – | – | – | – | < 50% | O=C(NCCC(F)CN1CCN(c2cccc(Cl)c2Cl)CC1)c1ccc2c(c1)Cc1ccccc1-2 (configuration not stated) | – | – | –
5.72 | 6.59 | 6.71 | – | 8.21 | 32 | – | – | – | – | < 50% | < 50% | O=C(NCCC(F)CN1CCN(c2cccc(Cl)c2Cl)CC1)c1ccc2ccccc2c1 (configuration not stated) | – | – | –
5.45 | 5.94 | 6.52 | 5.52 | 8.34 | 66 | 5.93 | – | – | – | – | – | COc1ccc2[nH]c(C(=O)NCCC(F)CN3CCN(c4ccccc4OC)CC3)cc2c1 (configuration not stated) | – | – | –
– | – | 6.79 | – | – | 2 | – | – | – | – | – | – | CCCN(CCCCN1CCN(c2cccc(Cl)c2Cl)CC1)Cc1cc2ccccc2s1 | – | – | –
– | – | 7.16 | – | 7.17 | 1 | – | – | – | – | – | – | CCCN(CCCCN1CCN(c2ccccc2OC)CC1)Cc1cc2ccccc2s1 | – | – | –
– | – | 6.57 | – | 6.89 | 2 | – | – | – | – | – | – | CCCN(CCCCN1CCN(c2cccc(Cl)c2Cl)CC1)Cc1ccc2c(c1)Cc1ccccc1-2 | – | – | –
– | – | – | – | – | 133 | – | – | – | – | – | – | O=C(NC/C=C/CN1CCN(c2cccc(Cl)c2Cl)CC1)c1ccc(-c2ccccn2)cc1 | – | – | –
5.69 | 6.41 | 6.41 | 6.16 | 7.69 | 19 | 7.31 | 73% | 7.15 | – | – | – | COc1ccccc1N1CCN(CC(F)CCNC(=O)c2ccc(-c3ccccn3)cc2)CC1 (configuration not stated) | – | – | –
5.52 | 7.08 | 6.62 | 5.49 | 8.42 | 63 | 6.86 | 57% | 6.36 | – | – | – | COc1ccccc1N1CCN(CC(F)CCNC(=O)c2cc3ccccc3s2)CC1 (configuration not stated) | – | – | –
6.56 | 5.84 | 6.55 | – | 8.10 | 35 | 6.30 | – | – | – | – | < 50% | COc1ccc2oc(C(=O)NCCC(F)CN3CCN(c4cccc(Cl)c4Cl)CC3)cc2c1 (configuration not stated) | – | – | –
– | – | 6.06 | – | 6.79 | 5 | – | – | – | – | – | – | CN(CCC(O)CN1CCN(c2cccc(Cl)c2Cl)CC1)Cc1ccc2c(c1)Cc1ccccc1-2 (configuration not stated) | – | – | –
5.52 | 6.11 | 6.56 | 5.91 | 7.86 | 20 | 7.14 | 76% | 6.22 | – | – | – | COc1ccc2oc(C(=O)NCCC(F)CN3CCN(c4ccccc4OC)CC3)cc2c1 (configuration not stated) | – | – | –
– | – | 5.28 | – | 6.33 | 11 | – | – | – | – | – | – | FC(CCNCc1ccc2c(c1)Cc1ccccc1-2)CN1CCN(c2cccc(Cl)c2Cl)CC1 (configuration not stated) | – | – | –
5.49 | 6.09 | 6.38 | – | 8.02 | 44 | 7.00 | 83% | 5.84 | 5.83 | – | < 50% | COc1ccccc1N1CCN(CC(F)CCNC(=O)c2cc3ccccc3[nH]2)CC1 (configuration not stated) | – | – | –
< 5.00 | 6.67 | 5.54 | – | 8.00 | 286 | 6.52 | – | – | 5.50 | – | < 50% | COc1ccccc1N1CCN(CC(F)CCNC(=O)c2ccc3c(c2)Cc2ccccc2-3)CC1 (configuration not stated) | – | – | –

SMILES | pKi [1] | pIC50 (D(3) dopamine receptor [2]) | pKi (D(2) dopamine receptor) | pIC50 (D(3) dopamine receptor [3]) | pKi (D(3) dopamine receptor [4]) | Ratio Ki (Homo sapiens) | pKi [5] | Activity [6] | pEC50 [7] | pKi (D(4) dopamine receptor) | inhibition [8] | inhibition (D(3) dopamine receptor [9]) | pKd [10] | pKd [11] | pKd [12]
CN(CCC(F)CN1CCN(c2cccc(Cl)c2Cl)CC1)Cc1ccc2c(c1)Cc1ccccc1-2 (configuration not stated) | 5.59 | 6.04 | 5.69 | – | 6.41 | 5 | – | – | – | – | < 50% | – | – | – | –
